Laboratory results from ChEMBL document CHEMBL1128680, “6-substituted 2,4-diamino-5-methylpyrido[2,3-d]pyrimidines as inhibitors of dihydrofolate reductases from Pneumocystis carinii and Toxoplasma gondii and as antitumor agents” (J Med Chem, 1995).

Assays:
[1] = system: 786-0; assay: Cytotoxic activity against 786-0 Renal cancer cell line; format: functional; settings: Homo sapiens
[2] = system: ACHN; assay: Cytotoxic activity against ACHN Renal cancer cell line; format: functional; settings: Homo sapiens
[3] = system: A549; assay: Cytotoxic activity against A549/ATCC non-small cell-lung cancer cell line; format: functional; settings: Homo sapiens
[4] = system: CCRF-CEM; assay: Cytotoxic activity against CCRF-CEM Leukemia cell line; format: functional; settings: Homo sapiens
[5] = system: DU-145; assay: Cytotoxic activity against DU-145 Prostate cancer cell line; format: functional; settings: Homo sapiens
[6] = system: HCT-15; assay: Cytotoxic activity against HCT-15 colon cancer cell line; format: functional; settings: Homo sapiens
[7] = system: HCT-116; assay: Cytotoxic activity against HCT116 colon cancer cell line; format: functional; settings: Homo sapiens
[8] = system: HT-29; assay: Cytotoxic activity against HT-29 colon cancer cell line; format: functional; settings: Homo sapiens
[9] = system: IGROV-1; assay: (§1) Cytotoxic activity against IGROV1 Ovarian cancer cell line; format: functional; settings: Homo sapiens
[10] = system: MOLT-4; assay: Cytotoxic activity against MOLT-4 Leukemia cell line; format: functional; settings: Homo sapiens
[11] = system: LOX IMVI; assay: Cytotoxic activity against LOXIMVI Melanoma cell line; format: functional; settings: Homo sapiens
[12] = system: MDA-MB-435; assay: Cytotoxic activity against MDA-MB-435 Breast cancer cell line; format: functional; settings: Homo sapiens
[13] = system: MDA-MB-231; assay: Cytotoxic activity against MDA-MB-231/ATCC Breast cancer cell line; format: functional; settings: Homo sapiens
[14] = system: MDA-N; assay: Cytotoxic activity against MDA-N breast cancer cell line; format: functional; settings: Homo sapiens
[15] = system: NCI-H460; assay: Cytotoxic activity against NCI-H460 non-small cell-lung cancer cell line; format: functional; settings: Homo sapiens
[16] = system: NCI-H322M; assay: Cytotoxic activity against NCI-H322M non-small cell-lung cancer cell line; format: functional; settings: Homo sapiens
[17] = system: PC-3; assay: Cytotoxic activity against PC-3 Prostate cancer cell line; format: functional; settings: Homo sapiens
[18] = system: SR; assay: Cytotoxic activity against SR Leukemia cell line; format: functional; settings: Homo sapiens
[19] = system: SF-295; assay: Cytotoxic activity against SF-295 CNS cancer cell line; format: functional; settings: Homo sapiens
[20] = system: SK-MEL-5; assay: Cytotoxic activity against SK-MEL-5 Melanoma cell line; format: functional; settings: Homo sapiens
[21] = system: UACC-62; assay: Cytotoxic activity against UACC-62 Melanoma cell line; format: functional; settings: Homo sapiens
[22] = system: UACC-257; assay: Cytotoxic activity against UACC-257 Melanoma cell line; format: functional; settings: Homo sapiens
[23] = system: U-251; assay: Cytotoxic activity against U251 CNS cancer cell line; format: functional; settings: Homo sapiens
[24] = system: K562; assay: Cytotoxic activity against K-562 Leukemia cell line; format: functional; settings: Homo sapiens
[25] = system: SF-268; assay: Cytotoxic activity against SF-268 CNS canser cell line; format: functional; settings: Homo sapiens
[26] = target: T1, Dihydrofolate reductase (Pneumocystis carinii, UniProt P16184)
T1 sequence (P16184 whole entry): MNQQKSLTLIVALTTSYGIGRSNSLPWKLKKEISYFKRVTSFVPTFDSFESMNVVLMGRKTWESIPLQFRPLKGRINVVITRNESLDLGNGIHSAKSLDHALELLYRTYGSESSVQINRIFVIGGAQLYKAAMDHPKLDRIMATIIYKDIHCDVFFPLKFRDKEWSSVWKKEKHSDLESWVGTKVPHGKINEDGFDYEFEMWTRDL
Description: Inhibitory activity against Dihydrofolate reductase from Pneumocystis carinii

[27] = target: T2, Bifunctional dihydrofolate reductase-thymidylate synthase (Toxoplasma gondii, UniProt Q07422)
T2 sequence (Q07422 whole entry): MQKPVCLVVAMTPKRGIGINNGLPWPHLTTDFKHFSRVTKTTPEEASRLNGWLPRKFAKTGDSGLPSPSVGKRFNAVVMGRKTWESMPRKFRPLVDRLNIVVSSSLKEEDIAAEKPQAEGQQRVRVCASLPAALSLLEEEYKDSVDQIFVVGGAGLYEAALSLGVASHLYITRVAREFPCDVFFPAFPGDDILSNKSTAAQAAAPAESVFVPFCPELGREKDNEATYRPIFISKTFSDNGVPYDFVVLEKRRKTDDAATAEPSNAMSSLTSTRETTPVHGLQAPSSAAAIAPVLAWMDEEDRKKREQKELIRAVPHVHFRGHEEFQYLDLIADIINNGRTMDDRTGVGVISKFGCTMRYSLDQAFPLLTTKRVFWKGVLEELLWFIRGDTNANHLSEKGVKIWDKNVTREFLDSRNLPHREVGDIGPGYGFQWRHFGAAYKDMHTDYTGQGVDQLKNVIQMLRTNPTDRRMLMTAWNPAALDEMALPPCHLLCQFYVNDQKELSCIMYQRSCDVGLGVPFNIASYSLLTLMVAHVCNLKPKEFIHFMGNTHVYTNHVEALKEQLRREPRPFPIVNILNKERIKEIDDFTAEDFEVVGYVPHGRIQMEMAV
Description: Inhibitory activity against Dihydrofolate reductase from Toxoplasma gondii

[28] = target: T3, Dihydrofolate reductase (Rattus norvegicus, UniProt Q920D2)
T3 sequence (Q920D2 whole entry): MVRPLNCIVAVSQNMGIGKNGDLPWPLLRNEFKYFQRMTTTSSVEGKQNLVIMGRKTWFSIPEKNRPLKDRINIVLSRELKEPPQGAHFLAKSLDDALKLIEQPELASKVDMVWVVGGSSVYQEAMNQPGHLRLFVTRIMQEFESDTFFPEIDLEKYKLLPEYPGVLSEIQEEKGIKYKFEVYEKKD
Description: Inhibitory activity against Dihydrofolate reductase from rat liver

[29] = system: Toxoplasma gondii; assay: Inhibitory activity against cultured Toxoplasma gondii; format: functional, organism-based
[30] = Ratio of the inhibitory concentrations against Toxoplasma gondii […] and Toxoplasma gondii DHFR.
[31] = as §1; format: functional; settings: Homo sapiens, IGROV-1
[32] = system: MDA-N; assay: Cytotoxic activity against MDA-N Breast cancer cell line; format: functional; settings: Homo sapiens
[33] = system: SW-620; assay: Cytotoxic activity against SW-620 colon cancer cell line; format: functional; settings: Homo sapiens
[34] = target: Dihydrofolate reductase (Lactobacillus casei, UniProt P00381)
Dihydrofolate reductase (Lactobacillus casei, UniProt P00381), sequence (P00381 whole entry): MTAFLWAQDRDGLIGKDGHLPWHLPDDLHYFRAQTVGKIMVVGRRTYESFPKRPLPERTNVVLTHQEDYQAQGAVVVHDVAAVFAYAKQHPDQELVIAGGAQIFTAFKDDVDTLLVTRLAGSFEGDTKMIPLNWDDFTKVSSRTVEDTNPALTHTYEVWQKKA
Description: Inhibitory activity against Dihydrofolate reductase from Lactobacillus casei

COc1ccc(NCc2cnc3nc(N)nc(N)c3c2C)c(OC)c1
GI50 [1]: 588 nM
GI50 [2]: 2890 nM
GI50 [3]: 635 nM
GI50 [4]: 4290 nM
GI50 [5]: 2830 nM
GI50 [6]: 2200 nM
GI50 [7]: 173 nM
GI50 [8]: 2380 nM
GI50 [9]: 6270 nM
GI50 [10]: 1220 nM
GI50 [11]: 3350 nM
GI50 [12]: 3530 nM
GI50 [13]: 1910 nM
GI50 [14]: 359 nM
GI50 [15]: 481 nM
GI50 [16]: 50600 nM
GI50 [17]: 852 nM
GI50 [18]: 3530 nM
GI50 [19]: 1610 nM
GI50 [20]: 1150 nM
GI50 [21]: 126000 nM
GI50 [22]: 100000 nM
GI50 [23]: 5810 nM
GI50 [24]: 305 nM
GI50 [25]: 4170 nM
IC50 [26]: 316 nM
IC50 [27]: 56.5 nM
IC50 [28]: 214 nM

COc1cc(NCc2cnc3nc(N)nc(N)c3c2C)cc(OC)c1
IC50 [29]: 600 nM
Ratio [30]: 125
IC50 [26]: 22.9 nM
IC50 [27]: 4.8 nM
IC50 [28]: 42.5 nM

CCOc1ccc(OCC)c(NCc2cnc3nc(N)nc(N)c3c2C)c1
IC50 [29]: 320 nM
Ratio [30]: 19
IC50 [26]: 76.7 nM
IC50 [27]: 17 nM
IC50 [28]: 17.4 nM

COc1ccc(NCc2cnc3nc(N)nc(N)c3c2C)c2ccccc12
GI50 [1]: 55 nM
GI50 [2]: 47.9 nM
GI50 [3]: 38.4 nM
GI50 [4]: 76.6 nM
GI50 [5]: 52.1 nM
GI50 [6]: 45.6 nM
GI50 [7]: 11.7 nM
GI50 [8]: 72.3 nM
GI50 [31]: 86.8 nM
GI50 [10]: 91.1 nM
GI50 [11]: 69.4 nM
GI50 [12]: 62.1 nM
GI50 [13]: 18.8 nM
GI50 [32]: 42.5 nM
GI50 [15]: 49.1 nM
GI50 [16]: 85 nM
GI50 [17]: 79.8 nM
GI50 [33]: 79.6 nM
GI50 [18]: 76 nM
GI50 [19]: 83.2 nM
GI50 [20]: 57.8 nM
IC50 [29]: 40 nM
GI50 [21]: 43.2 nM
GI50 [22]: 86.8 nM
GI50 [23]: 72.9 nM
Ratio [30]: 2
GI50 [24]: 16.1 nM
GI50 [25]: 60.4 nM
IC50 [26]: 41 nM
IC50 [27]: 23 nM
IC50 [28]: 54 nM

C#CCN(Cc1cnc2nc(N)nc(N)c2c1C)c1cc(OC)c(OC)c(OC)c1
IC50 [26]: 53.5 nM
IC50 [27]: 7.7 nM
IC50 [28]: 11.8 nM

Cc1c(CNc2cccc3ccccc23)cnc2nc(N)nc(N)c12
IC50 [29]: 100 nM
Ratio [30]: 7
IC50 [26]: 573 nM
IC50 [27]: 14.5 nM
IC50 [28]: 29.6 nM

CCN(Cc1cnc2nc(N)nc(N)c2c1C)c1cc(OC)c(OC)c(OC)c1
IC50 [26]: 49.7 nM
IC50 [27]: 7.7 nM
IC50 [28]: 10.5 nM

CCOc1ccc(OCC)c(N(C)Cc2cnc3nc(N)nc(N)c3c2C)c1
IC50 [26]: 3100 nM
IC50 [27]: 100 nM
IC50 [28]: 3000 nM

COc1ccc(N(C)Cc2cnc3nc(N)nc(N)c3c2C)c(OC)c1
IC50 [29]: 1730 nM
Ratio [30]: 46
IC50 [26]: 510 nM
IC50 [27]: 38 nM
IC50 [28]: 330 nM

COc1ccc(N(C)Cc2cnc3nc(N)nc(N)c3c2C)cc1OC
IC50 [26]: 320 nM
IC50 [27]: 29 nM
IC50 [28]: 44 nM

COc1cc(N(C)Cc2cnc3nc(N)nc(N)c3c2C)cc(OC)c1OC
IC50 [29]: 4700 nM

COc1cc(NCc2ccc3nc(N)nc(N)c3c2C)cc(OC)c1OC [TRIMETREXATE]
IC50 [34]: 27 nM

COc1cc(N(Cc2cnc3nc(N)nc(N)c3c2C)C(C)C)cc(OC)c1OC
IC50 [26]: 13.4 nM
IC50 [27]: 6.7 nM
IC50 [34]: 210 nM
IC50 [28]: 17.5 nM

COc1ccc(OC)c(N(C)Cc2cnc3nc(N)nc(N)c3c2C)c1
GI50 [1]: 843 nM
GI50 [2]: 3750 nM
GI50 [3]: 732 nM
GI50 [4]: 7150 nM
GI50 [5]: 2710 nM
GI50 [6]: 2540 nM
GI50 [7]: 3970 nM
GI50 [8]: 3220 nM
GI50 [9]: 5450 nM
GI50 [10]: 3160 nM
GI50 [11]: 5820 nM
GI50 [12]: 4180 nM
GI50 [13]: 764 nM
GI50 [32]: 6620 nM
GI50 [16]: 5560 nM
GI50 [17]: 783 nM
GI50 [33]: 5040 nM
GI50 [18]: 7450 nM
GI50 [19]: 3410 nM
GI50 [20]: 1560 nM
IC50 [29]: 1050 nM
GI50 [21]: 1150 nM
GI50 [22]: 20000 nM
GI50 [23]: 4210 nM
Ratio [30]: 35
GI50 [24]: 499 nM
GI50 [25]: 5910 nM
IC50 [26]: 216 nM
IC50 [27]: 30.1 nM
IC50 [28]: 407 nM

COc1cc(OC)cc(N(C)Cc2cnc3nc(N)nc(N)c3c2C)c1
GI50 [1]: 630 nM
GI50 [2]: 816 nM
GI50 [3]: 442 nM
GI50 [4]: 536 nM
GI50 [5]: 4360 nM
GI50 [6]: 2120 nM
GI50 [7]: 410 nM
GI50 [8]: 5840 nM
GI50 [9]: 956 nM
GI50 [10]: 742 nM
GI50 [11]: 1990 nM
GI50 [12]: 6930 nM
GI50 [13]: 9220 nM
GI50 [32]: 527 nM
GI50 [15]: 544 nM
GI50 [17]: 594 nM
GI50 [33]: 5500 nM
GI50 [18]: 541 nM
GI50 [19]: 5150 nM
GI50 [20]: 596 nM
GI50 [21]: 628 nM
GI50 [22]: 620 nM
GI50 [23]: 529 nM
GI50 [24]: 209 nM
GI50 [25]: 717 nM
IC50 [26]: 130 nM
IC50 [27]: 58 nM
IC50 [28]: 170 nM

COc1ccc(OC)c(NCc2cnc3nc(N)nc(N)c3c2C)c1
IC50 [29]: 1500 nM
Ratio [30]: 94
IC50 [26]: 46 nM
IC50 [27]: 16 nM
IC50 [34]: 39 nM
IC50 [28]: 128 nM

COc1ccc(NCc2cnc3nc(N)nc(N)c3c2C)cc1OC
IC50 [26]: 44 nM
IC50 [27]: 8.8 nM
IC50 [34]: 83 nM
IC50 [28]: 7.6 nM
